According to paper PMC12388125, “Design, Synthesis, and Pharmacological Activity of the N-(4-(1H-1,2,4-Triazol-1-yl)phenyl)-substituted-amide Derivatives” (Molecules, 2025):
Read-outs that look alike come from different tables or passages of the source.

Columns and labels:
MES-induced seizures = experiment: animal or person; type: in vivo, Kunming mice; conditions: for ED50 (MES) / PI (TD50/ED50) MES / ED50: 0.5 h; for ED50 (MES): value (95% CI); for PI (TD50/ED50) MES: Kunming, mouse, in vivo; for ED50 / minimal effective dose: Mus musculus; for ED50: as given in the text; for minimal effective dose: ip, doses 30, 100, 300 mg/kg, read-out: MES, dose at which at least one of three animals was protected
Protocol: (§1) Pharmacological tests were performed using two experimental animal models, MES and scPTZ, which were divided into three dosage groups of 30, 100, and 300 mg/kg, and the anticonvulsant activity of the target compounds 6a–m and 9a–g, after 0.5 and 4 h of administration, respectively, were tested. Carbamazepine, which is effective in the MES model, was chosen as a positive control, and ethosuximide, which is effective in the scPTZ model, was chosen as a positive control. […]
Protection against the spread of
extension component of the seizure. […]

mice [1] = conditions: Kunming, mouse, in vivo, 0.5 h
Protocol: (§2) The neurotoxicity of the target compounds was tested using the ROT experimental model, which was divided into two dose groups, 100 and 300 mg/kg, and tested after 0.5 and 4 h of administration, respectively.
(§3) The neurotoxicity of the target compounds was determined using the ROT experimental model.
(§4) The neurotoxicity of the compounds wa s measured in mice using the rotarod test. Mice
(§5) we r e trained to stay on an accelerating rotarod (diameter, 3.2 cm) rotating at 10 rpm. Trained
(§6) animals we r e injected with the test compounds (i.p.) and neurotoxicity wa s measured as the
(§7) inability of the animal to maintain equilibrium on the rod for at least 1 min in each of the

[2] = system: pentylenetetrazole-induced clonic seizures; experiment: animal or person; type: in vivo, Kunming mice; conditions: for minimal effective dose: doses 30, 100, 300 mg/kg, read-out: scPTZ, dose at which at least one of three animals was protected; for ED50 (scPTZ): value (95% CI); for PI (TD50/ED50) scPTZ: Kunming, mouse, in vivo
Protocol: as §1
The test compound wa s
Absence of clonic spasms indicated a […]

mice [3] = experiment: Rotarod (ROT) neurotoxicity test; conditions: for NT (neurotoxicity, ROT), dose at which at least one of three animals showed neurotoxicity: doses 100, 300 mg/kg; for TD50 (ROT): 0.5 h, value (95% CI)
Protocol: as §2, §3, §4, §5, §6, §7

[4] = system: GABA content in brain tissue; experiment: GABA estimation in brain tissue; type: in vivo, Wistar rats; conditions: 30 mg/kg, n = 5
Protocol: The data obtained from the experiments were analyzed and processed and plotted using GraphPad Prism 8 software.
We i g h about 0.05 g of tissue sample in a homogenizer, add 450 µL of extracting solution
to homogenize, homogenize, transfer to an EP tube, mark the liquid level scale, and heat for 2
hours at 95°C. After heating, centrifuge at 8000 × g for 10 min and remove the supernatant for
① Standard tube: Ta k e 30 µL of different concentrations of standards and add them to
the corresponding 1.5 mL EP tube. Measurement tube: Ta k e 30 µL of sample supernatant and
add it to 1.5 mL EP tube. ② Add 50 µL of buffer solution and 40 µL of Chromogenic Agent A
to each tube in step, mix we l l , and let stand at room temperature for 5 min. ③ Add 60 µL of
Chromogenic Agent B to each tube in step, mix we l l , and heat at 95°C for 10 min, then cool at
ice bath. ④ Add 200 µL of supplementary solution to each tube in step and mix well. ⑤ Ta k e
200 µL into the corresponding we l l s of the enzyme plate, and measure the OD va l u e of each

mice [5] = experiment: Elevated plus maze (EPM) test; type: in vivo; conditions: n = 6
Excerpt: The EPM experiment is a method for evaluating whether experimental animals have an anxiety response. The principle is that, in the face of new things, mice will generate curiosity to explore (open arm), while they have a nature of darkness (closed arm), the conflict behavior between the two occurs between exploration and avoidance, resulting in anxiety. Anxious behavior can be evaluated by comparing the retention time of mice in the open and closed arms.
Flumazenil is a selective BZ antagonist with a chemical structure similar to that of BZs, which acts on central benzodiazepine (BZ) receptors and thus blocks the receptors without producing BZ-like effects.
The apparatus consisted of a black acrylic maze with two opposite open arms (50×10 cm) and two opposite closed arms (50×10×40 cm) disposed like a plus sign with a central square of 10 cm2. Entire maze wa s elevated 50 cm above the floor. The test consisted in placing the rat in the central square of the maze facing one closed arm and allowing it to explore during 5 min. This procedure wa s performed in a quiet and dimly illuminated room. The scores analysed we r e the time spent in open and closed arms, and the number of entries to both […]
widely used as an anxiety index (time spent in open arms relative to the time spent in open […]
and closed arms). […]

[6] = Mus musculus, sc, 0.5 h after administration
[7] = Mus musculus, sc, 4 h after administration

SMILES	ED50 (MES) (MES-induced seizures)	PI (TD50/ED50) MES (MES-induced seizures)	ED50 (MES-induced seizures)	TD50 (ROT) (mice [1])	minimal effective dose (MES-induced seizures; 0.5 h after administration)	minimal effective dose (MES-induced seizures; 4 h after administration)	minimal effective dose [2, 6]	minimal effective dose [2, 7]	NT (neurotoxicity, ROT), dose at which at least one of three animals showed neurotoxicity (mice [3]; 0.5 h after administration)	NT (neurotoxicity, ROT), dose at which at least one of three animals showed neurotoxicity (mice [3]; 4 h after administration)	ED50 (scPTZ) ([2]; 0.5 h)	PI (TD50/ED50) scPTZ ([2]; 0.5 h)	ED50 ([2]; Mus musculus, sc, 0.5 h, as given in the text, read-out: ED50 (scPTZ))	GABA content in brain tissue vs control ([4]; 2 h after administration)	GABA content in brain tissue vs control ([4]; 7 d continuous administration)	EPM % of time in open arms vs control (mice [5]; 0.5 mg/kg)	EPM % of time in open arms vs control (mice [5]; 6l 0.5 mg/kg + FMZ 5 mg/kg)	EPM time in open arm vs 6l group (mice [5]; 6l 0.5 mg/kg + FMZ 5 mg/kg)	TD50 (ROT) (mice [3])
NC(=O)N1c2ccccc2C=Cc2ccccc21 [Carbamazepine, reference compound]	11.4 mg/kg	6.1	11.4 mg/kg	69.3 (75.4–63.8) mg															
O=C(Nc1ccc(-n2cncn2)cc1)c1ccc(C(F)(F)F)cc1 [Compound 6j, N-(4-(1H-1,2,4-triazol-1-yl)phenyl)-4-(trifluoromethyl)benzamide]					100 mg/kg	300 mg/kg	100 mg/kg	100 mg/kg	>300 mg/kg	>300 mg/kg									
Cc1ccccc1C(=O)Nc1ccc(-n2cncn2)cc1 [Compound 6k, N-(4-(1H-1,2,4-triazol-1-yl)phenyl)-2-methylbenzamide]					30 mg/kg	100 mg/kg	100 mg/kg	300 mg/kg	>300 mg/kg	>300 mg/kg									
Cc1cccc(C(=O)Nc2ccc(-n3cncn3)cc2)c1 [Compound 6l, N-(4-(1H-1,2,4-triazol-1-yl)phenyl)-3-methylbenzamide]	9.1 mg/kg	45.9	9.1 mg/kg		30 mg/kg	30 mg/kg	30 mg/kg	30 mg/kg	>300 mg/kg	>300 mg/kg	19 mg/kg	22.1	19 mg/kg	do not show significant differences	showed significant differences	showed a significant difference	did not show a significant difference	significantly shortened the time of the experimental animals in the open arm	419.5 (456.1–385.9) mg
Cc1ccc(C(=O)Nc2ccc(-n3cncn3)cc2)cc1 [Compound 6m, N-(4-(1H-1,2,4-triazol-1-yl)phenyl)-4-methylbenzamide]					300 mg/kg	300 mg/kg	100 mg/kg	300 mg/kg	>300 mg/kg	>300 mg/kg									
CCC(=O)Nc1ccc(-n2cncn2)cc1 [Compound 9a, N-(4-(1H-1,2,4-triazol-1-yl)phenyl)propionamide]					100 mg/kg	300 mg/kg	100 mg/kg	100 mg/kg	>300 mg/kg	>300 mg/kg									
CCCC(=O)Nc1ccc(-n2cncn2)cc1 [Compound 9b, N-(4-(1H-1,2,4-triazol-1-yl)phenyl)butyramide]					30 mg/kg	100 mg/kg	30 mg/kg	100 mg/kg	300 mg/kg	>300 mg/kg									
CCCCC(=O)Nc1ccc(-n2cncn2)cc1 [Compound 9c, N-(4-(1H-1,2,4-triazol-1-yl)phenyl)pentanamide]	17.3 mg/kg	15.0			30 mg/kg	30 mg/kg	30 mg/kg	100 mg/kg	300 mg/kg	>300 mg/kg	35.5 mg/kg	7.3							260.0 (282.7–239.2) mg
